Source: the NIST ThermoML archive (doi:10.1016/j.jct.2012.06.020)

Conditions: 101.33 kPa, Liquid, Vibrating tube method

C[S+](C)[O-] [dimethyl sulfoxide]
Conditions | mass density [kg/m3]
293.15 K | 1100.22
298.15 K | 1095.19
303.15 K | 1090.16
313.15 K | 1080.12
323.15 K | 1070.07
333.15 K | 1060.03
